Laboratory results taken from patent US11319303B2 (WIGEN BIOMEDICINE TECHNOLOGY (SHANGHAI) CO., LTD., priority 2017, dated 2022).

These molecules were tested against LC3B (Homo sapiens, UniProt Q9GZQ8) (assay: Fluorescence Polarization (FP) Assay: displacement of FITC-labeled peptide from GST-LC3B). Conditions: not given.
Type: binding
Procedure: The compounds of the present invention for regulating the autophagy-related protein LC3B were tested by Fluorescence Polarization (FP) Assay.
Fluorescence Polarization (FP) Assay Test

SMILES	IC50 [µM]
CN(C)C=C1C(=O)CC(C2CCCCC2)CC1=O (stereo not drawn) [Compound 262, 4-((dimethylamino)methylene)-[1,1′-bi(cyclohexane)]-3,5-dione]	< 3

Same assay, conditions: Fluorescence Polarization assay; GST-LC3B 180 nM, FITC-labeled peptide 18 nM, 25° C.; read-out: IC50

SMILES	IC50 [µM]
Cc1ccc(C2CC(=O)C(=CNCCN3CCN(S(=O)(=O)c4ccc(C)cc4)CC3)C(=O)C2)cc1 (stereo not drawn) [Compound 227, 5-(p-tolyl)-2-(((2-(4-tosylpiperazin-1-yl)ethyl)amino)methylene) cyclohexane-1,3-dione]	100 to 1000
O=C1CC(c2ccccc2)CC(=O)C1=CNCCN1CCNCC1 (stereo not drawn) [Compound 236, 5-phenyl-2-(((2-(piperazin-1-yl)ethyl)amino)methylene) cyclohexane-1,3-dione]	3 to 15
Cc1ccc(C2CC(=O)C(=CNCCN3CCNCC3)C(=O)C2)cc1 (stereo not drawn) [Compound 237, 2-(((2-(piperazin-1-yl)ethyl)amino)methylene)-5-(p-tolyl) cyclohexane-1,3-dione]	3 to 15
CN(C)C=C1C(=O)CC(c2ccc(N(C)C)cc2)CC1=O (stereo not drawn) [Compound 242, 2-((dimethylamino)methylene)-5-(4-(dimethylamino)phenyl) cyclohexane-1,3-dione]	3 to 15
COc1ccc(C2CC(=O)C(=CNCCN3CCN(C(=O)N4CCOCC4)CC3)C(=O)C2)cc1 (stereo not drawn) [Compound 246, 5-(4-methoxyphenyl)-2-(((2-(4-(morpholine-4-carbonyl)piperazin-1-yl)ethyl)amino)-methylene) cyclohexane-1,3-dione]	< 3
CN(C)C(=O)N1CCN(CCNC=C2C(=O)CC(c3ccc(Cl)cc3)CC2=O)CC1 (stereo not drawn) [Compound 248, 4-(2-(((4-(4-chlorophenyl)-2,6-dioxocyclo-hexylidene)methyl)amino)ethyl)-N,N-dimethylpiperazine-1-carboxamide]	< 3
O=C1CC(c2ccc(Cl)cc2)CC(=O)C1=CNCCN1CCN(C(=O)N2CCOCC2)CC1 (stereo not drawn) [Compound 249, 5-(4-chlorophenyl)-2-(((2-(4-(morpholine-4-carbonyl)piperazin-1-yl)ethyl)amino)methylene) cyclohexane-1,3-dione]	< 3
CN(C)C=C1C(=O)CC(c2ccc3c(c2)CCO3)CC1=O (stereo not drawn) [Compound 251, 5-(2,3-dihydrobenzofuran-5-yl)-2-((dimethylamino)methylene) cyclohexane-1,3-dione]	< 3
CN(C)C=C1C(=O)CC(c2ccc(C(F)(F)F)cc2)CC1=O (stereo not drawn) [Compound 254, 2-((dimethylamino)methylene)-5-(4-(trifluoromethyl)phenyl) cyclohexane-1,3-dione]	< 3
CN(C)C=C1C(=O)CC(c2cccc(C(F)(F)F)c2)CC1=O (stereo not drawn) [Compound 255, 2-((dimethylamino)methylene)-5-(3-(trifluoromethyl)phenyl) cyclohexane-1,3-dione]	< 3
CC(=O)Nc1ccc(C2CC(=O)C(=CN(C)C)C(=O)C2)cc1 (stereo not drawn) [Compound 256, N-(4-(4-((dimethylamino)methylene)-3,5-dioxocyclohexyl)phenyl) acetamide]	< 3
CN(C)C=C1C(=O)CC(c2cccnc2)CC1=O (stereo not drawn) [Compound 257, 2-((dimethylamino)methylene)-5-(pyridin-3-yl)cyclohexane-1,3-dione]	15 to 100
CN(C)C=C1C(=O)CC(c2ccc3[nH]ncc3c2)CC1=O (stereo not drawn) [Compound 259, 2-((dimethylamino)methylene)-5-(1H-indazol-5-yl)cyclohexane-1,3-dione]	< 3
O=C1CC(c2ccc(C(=O)O)cc2)CC(=O)C1=CNCCN1CCOCC1 (stereo not drawn) [Compound 260, 4-(4-(((2-morpholinoethyl)amino)methylene)-3,5-dioxocyclohexyl) benzoic acid]	< 3
CN(C)C=C1C(=O)CC(c2cccs2)CC1=O (stereo not drawn) [Compound 264, 2-((dimethylamino)methylene)-5-(thiophen-2-yl)cyclohexane-1,3-dione]	< 3
CN(C)C=C1C(=O)CC(c2ccc(Cl)nc2)CC1=O (stereo not drawn) [Compound 266, 5-(6-chloropyridin-3-yl)-2-((dimethylamino)methylene) cyclohexane-1,3-dione]	3 to 15
CN(C)C=C1C(=O)CC(c2cccc(C(=O)NCCc3ccccc3)c2)CC1=O (stereo not drawn) [Compound 267, 3-(4-((dimethylamino)methylene)-3,5-dioxocyclohexyl)-N-phenethylbenzamide]	3 to 15
CN(C)C=C1C(=O)CC(c2cccc(C(=O)NCCCCc3ccccc3)c2)CC1=O (stereo not drawn) [Compound 269, 3-(4-((dimethylamino)methylene)-3,5-dioxocyclohexyl)-N-(4-phenylbutyl)-benzamide]	3 to 15

Continued, values first:

IC50 [µM]	SMILES
< 3	CC(=O)N1CCN(CCNC=C2C(=O)CC(c3ccc(C)cc3)CC2=O)CC1 (stereo not drawn) [Compound 225, 2-(((2-(4-acetylpiperazin-1-yl)ethyl)amino)methylene)-5-(p-tolyl) cyclohexane-1,3-dione]
< 3	Cc1ccc(C2CC(=O)C(=CNCCN3CCN(C(=O)N4CCOCC4)CC3)C(=O)C2)cc1 (stereo not drawn) [Compound 226, 2-(((2-(4-(morpholine-4-carbonyl)piperazin-1-yl)ethyl)amino)methylene)-5-(p-tolyl) cyclohexane-1,3-dione]
< 3	CCCNC(=O)N1CCN(CCNC=C2C(=O)CC(c3ccc(C)cc3)CC2=O)CC1 (stereo not drawn) [Compound 228, 4-(2-(((2,6-dioxo-4-(p-tolyl)cyclohexylidene)methyl)amino)ethyl)-N-propylpiperazine-1-carboxamide]
< 3	Cc1ccc(C2CC(=O)C(=CNCCN3CCN(CCO)CC3)C(=O)C2)cc1 (stereo not drawn) [Compound 229, 2-(((2-(4-(2-hydroxyethyl)piperazin-1-yl)ethyl)amino)methylene)-5-(p-tolyl) cyclohexane-1,3-dione]
< 3	Cc1ccc(C2CC(=O)C(=CNCCN3CCN(CCCO)CC3)C(=O)C2)cc1 (stereo not drawn) [Compound 230, 2-(((2-(4-(3-hydroxypropyl)piperazin-1-yl)ethyl)amino)methylene)-5-(p-tolyl) cyclohexane-1,3-dione]
< 3	Cc1ccc(C2CC(=O)C(=CNCCN3CCN(C(=S)Nc4ccccc4)CC3)C(=O)C2)cc1 (stereo not drawn) [Compound 231, 4-(2-(((2,6-dioxo-4-(p-tolyl)cyclohexylidene)methyl)amino)ethyl)-N-phenylpiperazine-1-carbothioamide]
< 3	C=CC(=O)N1CCN(CCNC=C2C(=O)CC(c3ccc(C)cc3)CC2=O)CC1 (stereo not drawn) [Compound 232, 2-(((2-(4-acryloylpiperazin-1-yl)ethyl)amino)methylene)-5-(p-tolyl) cyclohexane-1,3-dione]
< 3	C=C(C)C(=O)N1CCN(CCNC=C2C(=O)CC(c3ccc(C)cc3)CC2=O)CC1 (stereo not drawn) [Compound 233, 2-(((2-(4-methacryloyl-piperazin-1-yl)ethyl)amino)methylene)-5-(p-tolyl) cyclohexane-1,3-dione]
< 3	CCN1CCN(CCNC=C2C(=O)CC(c3ccc(C)cc3)CC2=O)CC1 (stereo not drawn) [Compound 238, 2-(((2-(4-ethylpiperazin-1-yl)ethyl)amino)methylene)-5-(p-tolyl) cyclohexane-1,3-dione]
< 3	Cc1ccc(C2CC(=O)C(=CNCCN3CCN(C(=O)N(C)C)CC3)C(=O)C2)cc1 (stereo not drawn) [Compound 240, 4-(2-(((2,6-dioxo-4-(p-tolyl)cyclohexylidene)methyl)amino)ethyl)-N,N-dimethyl-piperazine-1-carboxamide]
< 3	COc1ccc(C2CC(=O)C(=CN(C)C)C(=O)C2)cc1 (stereo not drawn) [Compound 241, 2-((dimethylamino)methylene)-5-(4-methoxyphenyl) cyclohexane-1,3-dione]
